Results: US20140018316A1, “OPHTHALMIC PHARMACEUTICAL COMPOSITION” (Hayashibara Co., Ltd., priority 2005, published 2014)

Test system: pig lens
Assay: Swelling and cloudiness of extracted pig lenses soaked in test or control solutions (traumatic cataract model)
Set-up: key to degree of cloudiness in the lens (relative value): relative gray-scale density; uninjured lens in saline at start = 10
Description: Using an injured pig lens employed as a model for traumatic cataract, the influence of cyclic tetrasaccharide on the cloudiness in the lens was experimented as follows: A test solution was previously prepared by dissolving a cyclic tetrasaccharide crystal, penta hydrate, which had been prepared by the method in the later described Reference for Example 2, in physiological saline into a physiological saline containing 100 mM cyclic tetrasaccharide. As a positive control, a physiological saline containing 100 mM α,α-trehalose, a reagent grade specimen, commercialized by Hayashibara Biochemical Laboratories, Inc., Okayama, Japan, was used; andasanegativecontrol, physiological saline was used. Two milliliter aliquots of any one of the above three kinds of aqueous solutions were added to every two wells in respective commercialized 24-well culture plates. In one of the two wells containing the same kind of solution in each plate was placed a pig lens, which had been obtained from a slaughter-house, extracted by incision within three hours after the obtention and without injuring, and washing the extracted lens with physiological saline; while in the other of the two wells was placed a pig lens, which had been prepared by the same procedure as in the above but injured with a 27-gauge injection needle (commercialized by Terumo Co., Tokyo, Japan) to form an injured line, about one millimeter in length. These lens were allowed to stand at ambient temperature and macroscopically and microscopically observed their change in the degree of cloudiness and in the shape of swelling, etc. This experiment was run in a triplicate manner, and the macroscopic and microscopic observations were done just after (0), 1 hour, 2 hours, 6 hours, and 24 hours after the lenses were placed in the wells, and then observed daily over 28 days. A similar experiment was further conducted using a physiological saline containing 75 mM, 50 mM, 20 mM, 10 mM, or 1 mM cyclic tetrasaccharide and a lens that had not been injured with the injection needle. The degree of cloudiness in each lens, observed with “STEREOMICROSCOPE SZX12”, a product name of a stereomicroscope commercialized by Olympus Co., Tokyo, Japan, was expressed by photographing a transmitted light image of each lens with “PENGUIN 150CL”, a digital camera commercialized by Pixela Co., Tokyo, Japan, capturing the transmitted image by a computer using a view finder commercialized by Olympus Co., Tokyo, Japan, and expressing numerically the degree of light and shade of the captured image as a gray-scale using “Scion Image for Windows Beta 4.0.2”, a software commercialized by Scion Co., Maryland, U.S.A., to obtain a mean density for each lens. The time course change in the degree of cloudiness in each lens placed in each solution was expressed with a relative value, regarding the degree of cloudiness, just after the lens free of injury had been placed in physiological saline, as 10. The change of cloudiness and swelling are respectively in Tables 1 and 2. In Table 1, there show only the results from time 0 hour through two days and from days 7, 14 and 28.

[1] = 1 mM in physiological saline, no injury, 28 days
[2] = 10 mM in physiological saline, no injury, 28 days
[3] = 20 mM in physiological saline, no injury, 28 days
[4] = pig lens in physiological saline

With `OCC1OC2OCC3O[C@H](O[C@H]4C(O)C(CO)OC(OCC5O[C@H](O[C@@H](C1O)C2O)C(O)C(O)[C@@H]5O)C4O)C(O)C(O)[C@@H]3O` (stereo partly drawn) [Test solution, cyclo{→6)-α-D-glucopyranosyl-(1→3)-α-D-glucopyranosyl-(1→6)-α-D-glucopyranosyl-(1→3)-α-D-glucopyranosyl-(1→}] the “degree of cloudiness in the lens (relative value)” value (“degree … (relative value)” for short) (1 mM in physiological saline, no injury, 1 hour) was 11, the “degree … (relative value)” value (1 mM in physiological saline, no injury, 2 hours) was 12 and the “degree … (relative value)” value (1 mM in physiological saline, no injury, 6 hours) was 11. For the same molecule, the “degree … (relative value)” value (1 mM in physiological saline, no injury, 24 hours) was 12, the “degree … (relative value)” value (1 mM in physiological saline, no injury, 2 days) was 14 and the “degree … (relative value)” value (1 mM in physiological saline, no injury, 7 days) was 55. For the same molecule, the “degree … (relative value)” value (1 mM in physiological saline, no injury, 14 days) was 61, the “degree … (relative value)” value [1] was 85 and the “swelling of the lens” value [1] was “◯ (swelling was observed)”. For the same molecule, the “degree … (relative value)” value (1 mM in physiological saline, no injury, time 0) was 10, the “degree … (relative value)” value (10 mM in physiological saline, no injury, 1 hour) was 12 and the “degree … (relative value)” value (10 mM in physiological saline, no injury, 2 hours) was 11. For the same molecule, the “degree … (relative value)” value (10 mM in physiological saline, no injury, 6 hours) was 12, the “degree … (relative value)” value (10 mM in physiological saline, no injury, 24 hours) was 11 and the “degree … (relative value)” value (10 mM in physiological saline, no injury, 2 days) was 13. The “degree … (relative value)” value (10 mM in physiological saline, no injury, 7 days) was 49, the “degree … (relative value)” value (10 mM in physiological saline, no injury, 14 days) was 59 and the “degree … (relative value)” value [2] was 87. For the same molecule, the “swelling of the lens” value [2] was “◯ (swelling was observed)”, the “degree … (relative value)” value (10 mM in physiological saline, no injury, time 0) was 10 and the “degree … (relative value)” value (20 mM in physiological saline, no injury, 1 hour) was 11. For the same molecule, the “degree … (relative value)” value (20 mM in physiological saline, no injury, 2 hours) was 12, the “degree … (relative value)” value (20 mM in physiological saline, no injury, 6 hours) was 12 and the “degree … (relative value)” value (20 mM in physiological saline, no injury, 24 hours) was 12. For the same molecule, the “degree … (relative value)” value (20 mM in physiological saline, no injury, 2 days) was 14, the “degree … (relative value)” value (20 mM in physiological saline, no injury, 7 days) was 51 and the “degree … (relative value)” value (20 mM in physiological saline, no injury, 14 days) was 60. The “degree … (relative value)” value [3] was 71, the “swelling of the lens” value [3] was “◯ (swelling was observed)” and the “degree … (relative value)” value (20 mM in physiological saline, no injury, time 0) was 10. For the same molecule, the “cloudiness in the lens (in words)” value (20 mM, 10 mM or 1 mM, lenses with no injury, from seven days) was “cloudiness was observed throughout the lenses”, the “swelling of the lens (in words)” value (20 mM, 10 mM or 1 mM, lenses with no injury, until 14 days) was “No swelling of the lenses was observed” and the “degree … (relative value)” value (50 mM in physiological saline, no injury, 1 hour) was 11. For the same molecule, the “degree … (relative value)” value (50 mM in physiological saline, no injury, 2 hours) was 12, the “degree … (relative value)” value (50 mM in physiological saline, no injury, 6 hours) was 12 and the “degree … (relative value)” value (50 mM in physiological saline, no injury, 24 hours) was 12. For the same molecule, the “degree … (relative value)” value (50 mM in physiological saline, no injury, 2 days) was 13, the “degree … (relative value)” value (50 mM in physiological saline, no injury, 7 days) was 15 and the “degree … (relative value)” value (50 mM in physiological saline, no injury, 14 days) was 20. For the same molecule, the “degree … (relative value)” value (50 mM in physiological saline, no injury, 28 days) was 28, the “degree … (relative value)” value (50 mM in physiological saline, no injury, time 0) was 10 and the “degree … (relative value)” value (75 mM in physiological saline, no injury, 1 hour) was 11. For the same molecule, the “degree … (relative value)” value (75 mM in physiological saline, no injury, 2 hours) was 12, the “degree … (relative value)” value (75 mM in physiological saline, no injury, 6 hours) was 12 and the “degree … (relative value)” value (75 mM in physiological saline, no injury, 24 hours) was 12. For the same molecule, the “degree … (relative value)” value (75 mM in physiological saline, no injury, 2 days) was 12, the “degree … (relative value)” value (75 mM in physiological saline, no injury, 7 days) was 14 and the “degree … (relative value)” value (75 mM in physiological saline, no injury, 14 days) was 21. For the same molecule, the “degree … (relative value)” value (75 mM in physiological saline, no injury, 28 days) was 29, the “degree … (relative value)” value (75 mM in physiological saline, no injury, time 0) was 10 and the “swelling of the lens (in words)” value (75 mM or 50 mM, lenses with no injury, until 28 days) was “No swelling was observed”. The “degree … (relative value)” value (100 mM in physiological saline, injured lens, 1 hour) was 10, the “degree … (relative value)” value (100 mM in physiological saline, injured lens, 2 hours) was 10 and the “degree … (relative value)” value (100 mM in physiological saline, injured lens, 6 hours) was 12. For the same molecule, the “degree … (relative value)” value (100 mM in physiological saline, injured lens, 24 hours) was 12, the “degree … (relative value)” value (100 mM in physiological saline, injured lens, 2 days) was 12 and the “degree … (relative value)” value (100 mM in physiological saline, injured lens, time 0) was 10. The “degree … (relative value)” value (100 mM in physiological saline, no injury, 1 hour) was 13, the “degree … (relative value)” value (100 mM in physiological saline, no injury, 2 hours) was 12 and the “degree … (relative value)” value (100 mM in physiological saline, no injury, 6 hours) was 12. For the same molecule, the “degree … (relative value)” value (100 mM in physiological saline, no injury, 24 hours) was 12, the “degree … (relative value)” value (100 mM in physiological saline, no injury, 2 days) was 11 and the “degree … (relative value)” value (100 mM in physiological saline, no injury, 7 days) was 12. The “degree … (relative value)” value (100 mM in physiological saline, no injury, 14 days) was 15, the “degree … (relative value)” value (100 mM in physiological saline, no injury, 28 days) was 15 and the “degree … (relative value)” value (100 mM in physiological saline, no injury, time 0) was 10. For the same molecule, the “swelling of the lens (in words)” value (100 mM, injured lens, 2 days after initiating observation) was “the swelling of the lens was not observed”, the “cloudiness in the lens (in words)” value (100 mM, injured lens, after 2 days) was “partial cloudiness only at the injured site” and the “swelling of the lens (in words)” value (100 mM, lenses with no injury, on 28 days) was “no swelling”. The “concentration with a satisfactory swelling-inhibitory-effect on the lens” value [4] was at least 1 mM and the “concentration with an action of inhibiting the swelling and cloudiness in the lens and maintaining transparency” value [4] was at least 50 mM.
